According to ChEMBL document CHEMBL4507283, “Data for DCP probe BI-1935” (2021):
Active and inactive are the calls of the source. The rule behind the calls is not given here.

Legend:
[1] = biological target: Cyclin-dependent kinase 16 (Homo sapiens) (UniProt Q00536); settings: Compound concentration 1000.0 nM
[2] = biological target: Ribosomal protein S6 kinase alpha-1 (Homo sapiens) (UniProt Q15418); settings: Compound concentration 1000.0 nM
[3] = biological target: High affinity nerve growth factor receptor (Homo sapiens) (UniProt P04629); settings: Compound concentration 1000.0 nM
[4] = biological target: Microtubule-associated serine/threonine-protein kinase 1 (Homo sapiens) (UniProt Q9Y2H9); settings: Compound concentration 1000.0 nM
[5] = biological target: Ephrin type-A receptor 1 (Homo sapiens) (UniProt P21709); settings: Compound concentration 1000.0 nM
[6] = biological target: Fibroblast growth factor receptor 2 (Homo sapiens) (UniProt P21802); settings: Compound concentration 1000.0 nM
[7] = biological target: Atypical kinase COQ8B, mitochondrial (Homo sapiens) (UniProt Q96D53); settings: Compound concentration 1000.0 nM
[8] = biological target: Ribosomal protein S6 kinase alpha-5 (Homo sapiens) (UniProt O75582); settings: Compound concentration 1000.0 nM
[9] = biological target: Serine/threonine-protein kinase 36 (Homo sapiens) (UniProt Q9NRP7); settings: Compound concentration 1000.0 nM
[10] = biological target: Voltage-dependent L-type calcium channel subunit alpha-1C (diltiazem site) (Rattus norvegicus, UniProt P22002); assay: CA+/DILSI/RA Eurofins-Panlabs selectivity data (BI); settings: compound concentration 10 uM, read-out: % Ctrl
[11] = biological target: Mitogen-activated protein kinase kinase kinase 11 (Homo sapiens) (UniProt Q16584); settings: Compound concentration 1000.0 nM
[12] = biological target: Serine/threonine-protein kinase 3 (Homo sapiens) (UniProt Q13188); settings: Compound concentration 1000.0 nM
[13] = biological target: Glutamate receptor ionotropic, NMDA 1 (Rattus norvegicus) (UniProt P35439); assay: GLUTAMAT/R Eurofins-Panlabs selectivity data (BI); settings: Compound concentration 10.0 uM
[14] = biological target: Serine/threonine-protein kinase TAO1 (Homo sapiens) (UniProt Q7L7X3); settings: Compound concentration 1000.0 nM
[15] = biological target: Mitogen-activated protein kinase 15 (Homo sapiens) (UniProt Q8TD08); settings: Compound concentration 1000.0 nM
[16] = biological target: Serine/threonine-protein kinase MARK1 (Homo sapiens) (UniProt Q9P0L2); settings: Compound concentration 1000.0 nM
[17] = biological target: T1, Bifunctional epoxide hydrolase 2 (Homo sapiens, UniProt P34913); assay: Human soluble epoxide hydrolase inhibition
T1 sequence (P34913 whole entry): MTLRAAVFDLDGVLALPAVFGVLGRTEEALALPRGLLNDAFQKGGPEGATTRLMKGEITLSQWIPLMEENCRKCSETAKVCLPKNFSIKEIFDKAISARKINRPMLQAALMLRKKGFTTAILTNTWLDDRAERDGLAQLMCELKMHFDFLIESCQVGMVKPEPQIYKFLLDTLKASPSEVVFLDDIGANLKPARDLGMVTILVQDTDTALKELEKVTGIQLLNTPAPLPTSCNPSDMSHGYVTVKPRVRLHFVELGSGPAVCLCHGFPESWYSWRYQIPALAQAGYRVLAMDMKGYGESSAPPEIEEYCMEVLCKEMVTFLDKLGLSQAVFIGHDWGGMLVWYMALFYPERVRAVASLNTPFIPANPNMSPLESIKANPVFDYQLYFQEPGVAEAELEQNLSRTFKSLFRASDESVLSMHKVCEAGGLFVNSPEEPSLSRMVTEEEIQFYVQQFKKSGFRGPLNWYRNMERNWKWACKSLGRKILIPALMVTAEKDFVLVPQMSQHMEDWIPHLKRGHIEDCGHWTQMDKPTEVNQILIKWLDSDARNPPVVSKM

[18] = biological target: SRSF protein kinase 3 (Homo sapiens) (UniProt Q9UPE1); settings: Compound concentration 1000.0 nM
[19] = biological target: Calcium/calmodulin-dependent protein kinase type 1D (Homo sapiens) (UniProt Q8IU85); settings: Compound concentration 1000.0 nM
[20] = biological target: Tyrosine-protein kinase Fgr (Homo sapiens) (UniProt P09769); settings: Compound concentration 1000.0 nM
[21] = biological target: MAP kinase-interacting serine/threonine-protein kinase 1 (Homo sapiens) (UniProt Q9BUB5); settings: Compound concentration 1000.0 nM
[22] = biological target: Histamine H1 receptor (Homo sapiens) (UniProt P35367); settings: Compound concentration 10.0 uM
[23] = biological target: Calcium/calmodulin-dependent protein kinase type 1 (Homo sapiens) (UniProt Q14012); settings: Compound concentration 1000.0 nM
[24] = biological target: Activated CDC42 kinase 1 (Homo sapiens) (UniProt Q07912); settings: Compound concentration 1000.0 nM
[25] = biological target: Histamine H2 receptor (Homo sapiens) (UniProt P25021); settings: Compound concentration 10.0 uM
[26] = biological target: Serine/threonine-protein kinase WNK4 (Homo sapiens) (UniProt Q96J92); settings: Compound concentration 1000.0 nM
[27] = biological target: Ephrin type-B receptor 1 (Homo sapiens) (UniProt P54762); settings: Compound concentration 1000.0 nM
[28] = biological target: Tyrosine-protein kinase Blk (Homo sapiens) (UniProt P51451); settings: Compound concentration 1000.0 nM
[29] = biological target: Leukocyte tyrosine kinase receptor (Homo sapiens) (UniProt P29376); settings: Compound concentration 1000.0 nM
[30] = biological target: Ribosomal protein S6 kinase alpha-5 (Homo sapiens) (UniProt O75582); settings: Compound concentration 1000.0 nM; remark: listed apart in the source
[31] = biological target: Cyclin-dependent kinase 18 (Homo sapiens) (UniProt Q07002); settings: Compound concentration 1000.0 nM
[32] = biological target: Ephrin type-A receptor 5 (Homo sapiens) (UniProt P54756); settings: Compound concentration 1000.0 nM
[33] = biological target: Myosin light chain kinase family member 4 (Homo sapiens) (UniProt Q86YV6); settings: Compound concentration 1000.0 nM
[34] = biological target: Tyrosine-protein kinase Lck (Homo sapiens) (UniProt P06239); settings: Compound concentration 1000.0 nM
[35] = biological target: Receptor-interacting serine/threonine-protein kinase 2 (Homo sapiens) (UniProt O43353); settings: Compound concentration 1000.0 nM
[36] = biological target: Serine/threonine-protein kinase MAK (Homo sapiens) (UniProt P20794); settings: Compound concentration 1000.0 nM
[37] = biological target: SRSF protein kinase 1 (Homo sapiens) (UniProt Q96SB4); settings: Compound concentration 1000.0 nM
[38] = biological target: Mitogen-activated protein kinase kinase kinase 13 (Homo sapiens) (UniProt O43283); settings: Compound concentration 1000.0 nM

Chain of Ribosomal protein S6 kinase alpha-5 (Homo sapiens) (O75582 whole entry, looked up): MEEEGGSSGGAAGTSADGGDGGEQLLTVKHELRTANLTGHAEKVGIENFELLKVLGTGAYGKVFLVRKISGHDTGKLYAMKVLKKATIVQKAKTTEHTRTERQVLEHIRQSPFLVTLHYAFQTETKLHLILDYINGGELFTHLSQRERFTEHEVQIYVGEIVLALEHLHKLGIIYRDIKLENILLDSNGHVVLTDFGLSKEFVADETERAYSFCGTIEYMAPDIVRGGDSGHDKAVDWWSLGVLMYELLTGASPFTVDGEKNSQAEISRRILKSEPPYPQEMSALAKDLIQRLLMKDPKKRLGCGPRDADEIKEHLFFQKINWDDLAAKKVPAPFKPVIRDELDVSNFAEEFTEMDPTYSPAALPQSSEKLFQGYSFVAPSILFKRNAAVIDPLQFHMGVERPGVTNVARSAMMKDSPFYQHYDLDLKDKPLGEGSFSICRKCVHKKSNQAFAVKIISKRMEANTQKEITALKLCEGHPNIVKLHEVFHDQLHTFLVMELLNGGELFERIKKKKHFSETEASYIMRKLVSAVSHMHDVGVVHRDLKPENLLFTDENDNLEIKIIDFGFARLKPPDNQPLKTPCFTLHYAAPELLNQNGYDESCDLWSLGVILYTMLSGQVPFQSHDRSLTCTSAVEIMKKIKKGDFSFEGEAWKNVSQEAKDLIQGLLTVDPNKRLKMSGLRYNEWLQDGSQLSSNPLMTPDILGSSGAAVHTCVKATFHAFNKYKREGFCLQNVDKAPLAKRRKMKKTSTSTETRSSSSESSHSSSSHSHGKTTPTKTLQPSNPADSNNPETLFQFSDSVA
Chain of Ephrin type-B receptor 1 (Homo sapiens) (P54762 whole entry): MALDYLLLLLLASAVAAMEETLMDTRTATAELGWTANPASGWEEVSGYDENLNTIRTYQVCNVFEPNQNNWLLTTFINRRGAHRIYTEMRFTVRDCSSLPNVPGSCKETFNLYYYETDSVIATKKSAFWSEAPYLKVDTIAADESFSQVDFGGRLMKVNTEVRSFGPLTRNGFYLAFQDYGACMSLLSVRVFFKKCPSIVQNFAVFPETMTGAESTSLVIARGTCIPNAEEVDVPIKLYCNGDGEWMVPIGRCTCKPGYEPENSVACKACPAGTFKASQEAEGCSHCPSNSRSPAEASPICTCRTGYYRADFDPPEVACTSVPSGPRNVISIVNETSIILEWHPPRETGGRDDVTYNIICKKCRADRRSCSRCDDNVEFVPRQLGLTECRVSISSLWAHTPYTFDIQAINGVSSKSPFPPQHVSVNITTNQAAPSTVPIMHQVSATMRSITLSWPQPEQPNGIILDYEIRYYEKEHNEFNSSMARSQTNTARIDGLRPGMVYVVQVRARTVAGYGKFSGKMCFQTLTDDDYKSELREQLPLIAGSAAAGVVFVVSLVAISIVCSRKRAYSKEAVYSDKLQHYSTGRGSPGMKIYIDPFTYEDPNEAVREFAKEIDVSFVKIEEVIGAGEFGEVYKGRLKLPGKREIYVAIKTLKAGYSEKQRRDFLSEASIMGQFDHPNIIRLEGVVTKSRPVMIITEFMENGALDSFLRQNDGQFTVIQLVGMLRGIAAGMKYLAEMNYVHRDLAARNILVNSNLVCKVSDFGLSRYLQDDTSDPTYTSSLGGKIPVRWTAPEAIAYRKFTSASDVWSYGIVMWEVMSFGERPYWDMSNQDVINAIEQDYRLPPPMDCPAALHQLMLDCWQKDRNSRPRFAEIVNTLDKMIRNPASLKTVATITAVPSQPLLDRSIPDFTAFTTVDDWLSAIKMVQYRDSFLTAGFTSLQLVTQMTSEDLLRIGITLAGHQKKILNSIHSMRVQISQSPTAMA
Chain of Receptor-interacting serine/threonine-protein kinase 2 (Homo sapiens) (O43353 whole entry): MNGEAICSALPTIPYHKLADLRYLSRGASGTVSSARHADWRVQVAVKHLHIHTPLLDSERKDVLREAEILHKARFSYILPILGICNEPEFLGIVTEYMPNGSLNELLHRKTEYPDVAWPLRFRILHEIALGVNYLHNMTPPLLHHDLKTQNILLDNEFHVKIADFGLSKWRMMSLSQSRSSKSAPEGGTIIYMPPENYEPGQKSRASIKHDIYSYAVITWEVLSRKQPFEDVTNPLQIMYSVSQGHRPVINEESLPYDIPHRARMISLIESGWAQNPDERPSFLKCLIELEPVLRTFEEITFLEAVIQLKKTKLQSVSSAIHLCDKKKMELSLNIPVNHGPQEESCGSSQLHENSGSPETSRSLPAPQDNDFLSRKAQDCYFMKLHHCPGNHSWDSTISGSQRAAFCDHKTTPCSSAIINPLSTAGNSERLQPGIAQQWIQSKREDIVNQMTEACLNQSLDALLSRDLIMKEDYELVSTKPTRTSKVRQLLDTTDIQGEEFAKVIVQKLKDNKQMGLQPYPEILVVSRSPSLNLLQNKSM
Chain of SRSF protein kinase 3 (Homo sapiens) (Q9UPE1 whole entry): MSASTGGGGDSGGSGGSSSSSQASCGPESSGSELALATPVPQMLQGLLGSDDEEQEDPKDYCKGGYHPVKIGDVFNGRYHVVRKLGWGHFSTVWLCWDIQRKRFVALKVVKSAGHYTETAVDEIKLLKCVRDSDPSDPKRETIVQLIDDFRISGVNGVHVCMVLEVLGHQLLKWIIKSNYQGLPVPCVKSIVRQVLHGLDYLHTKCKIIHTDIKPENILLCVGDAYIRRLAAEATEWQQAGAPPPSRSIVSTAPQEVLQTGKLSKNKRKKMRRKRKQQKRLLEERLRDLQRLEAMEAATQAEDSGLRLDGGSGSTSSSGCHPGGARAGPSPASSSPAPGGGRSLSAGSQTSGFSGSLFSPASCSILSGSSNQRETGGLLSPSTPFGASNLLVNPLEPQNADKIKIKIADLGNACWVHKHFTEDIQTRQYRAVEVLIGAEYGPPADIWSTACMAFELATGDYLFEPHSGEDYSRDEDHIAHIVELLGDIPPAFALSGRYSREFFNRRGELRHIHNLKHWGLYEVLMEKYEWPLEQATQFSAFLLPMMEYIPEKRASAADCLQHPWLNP
Chain of Serine/threonine-protein kinase WNK4 (Homo sapiens) (Q96J92 whole entry): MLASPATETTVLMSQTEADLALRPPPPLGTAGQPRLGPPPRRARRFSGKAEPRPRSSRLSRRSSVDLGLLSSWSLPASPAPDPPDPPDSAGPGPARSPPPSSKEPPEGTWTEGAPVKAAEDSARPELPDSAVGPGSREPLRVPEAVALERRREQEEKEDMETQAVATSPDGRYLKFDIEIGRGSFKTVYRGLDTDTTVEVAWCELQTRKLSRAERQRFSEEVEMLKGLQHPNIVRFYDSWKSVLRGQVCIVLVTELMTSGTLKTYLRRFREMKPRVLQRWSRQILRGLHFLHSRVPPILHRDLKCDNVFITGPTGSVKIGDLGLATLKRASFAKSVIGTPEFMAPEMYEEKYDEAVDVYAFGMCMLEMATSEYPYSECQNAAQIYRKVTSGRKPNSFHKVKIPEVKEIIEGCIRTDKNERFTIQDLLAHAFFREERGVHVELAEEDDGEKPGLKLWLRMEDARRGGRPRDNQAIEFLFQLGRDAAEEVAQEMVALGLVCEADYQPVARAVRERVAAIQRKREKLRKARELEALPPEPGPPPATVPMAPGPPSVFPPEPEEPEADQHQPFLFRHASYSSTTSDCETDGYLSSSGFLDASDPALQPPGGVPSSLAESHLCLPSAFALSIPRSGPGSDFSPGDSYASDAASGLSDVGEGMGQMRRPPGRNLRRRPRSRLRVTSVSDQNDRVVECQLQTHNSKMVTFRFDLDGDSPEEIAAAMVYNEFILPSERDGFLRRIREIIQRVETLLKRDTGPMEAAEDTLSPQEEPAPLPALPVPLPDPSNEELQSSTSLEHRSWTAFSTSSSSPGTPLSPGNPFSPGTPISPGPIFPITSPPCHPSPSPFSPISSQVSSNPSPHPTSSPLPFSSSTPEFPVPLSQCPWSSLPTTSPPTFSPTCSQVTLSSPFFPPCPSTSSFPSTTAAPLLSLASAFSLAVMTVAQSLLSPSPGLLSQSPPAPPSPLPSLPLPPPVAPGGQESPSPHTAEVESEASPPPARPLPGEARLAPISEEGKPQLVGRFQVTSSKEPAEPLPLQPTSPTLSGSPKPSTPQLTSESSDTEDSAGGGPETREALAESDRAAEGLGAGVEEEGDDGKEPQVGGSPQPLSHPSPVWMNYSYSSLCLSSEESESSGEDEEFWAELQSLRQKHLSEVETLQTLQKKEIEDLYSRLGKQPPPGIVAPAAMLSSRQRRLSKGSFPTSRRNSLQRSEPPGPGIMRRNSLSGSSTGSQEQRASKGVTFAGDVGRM
Chain of Fibroblast growth factor receptor 2 (Homo sapiens) (P21802 22-821 limits assumed): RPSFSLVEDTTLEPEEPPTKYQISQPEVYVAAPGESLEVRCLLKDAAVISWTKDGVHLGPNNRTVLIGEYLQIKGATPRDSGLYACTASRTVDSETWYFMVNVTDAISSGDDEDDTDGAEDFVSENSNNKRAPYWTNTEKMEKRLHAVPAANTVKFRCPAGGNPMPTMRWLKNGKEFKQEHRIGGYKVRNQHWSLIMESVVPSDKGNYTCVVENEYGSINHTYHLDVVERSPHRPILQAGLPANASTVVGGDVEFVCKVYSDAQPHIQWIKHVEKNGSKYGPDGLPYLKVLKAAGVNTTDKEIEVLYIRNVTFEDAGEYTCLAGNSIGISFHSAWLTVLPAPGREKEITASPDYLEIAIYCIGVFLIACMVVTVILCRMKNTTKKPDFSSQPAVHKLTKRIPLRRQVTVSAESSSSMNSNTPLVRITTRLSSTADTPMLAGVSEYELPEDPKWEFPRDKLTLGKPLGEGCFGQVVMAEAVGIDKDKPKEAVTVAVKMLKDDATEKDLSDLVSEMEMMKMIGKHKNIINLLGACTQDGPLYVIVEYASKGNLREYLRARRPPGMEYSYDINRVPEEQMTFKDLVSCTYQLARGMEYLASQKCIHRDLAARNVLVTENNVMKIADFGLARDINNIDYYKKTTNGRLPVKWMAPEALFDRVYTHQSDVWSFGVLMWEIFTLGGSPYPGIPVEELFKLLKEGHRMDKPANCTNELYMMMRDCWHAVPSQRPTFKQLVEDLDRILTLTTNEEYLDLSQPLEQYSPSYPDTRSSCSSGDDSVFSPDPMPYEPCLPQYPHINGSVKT

## CCOCCn1cc(C(=O)Nc2ccc(-n3nc(-c4cccnc4)cc3C(F)(F)F)cn2)ccc1=O [BI 1935]
[1]
  residual activity: 98%
[2]
  residual activity: 100%
[3]
  residual activity: 100%
[4]
  residual activity: 100%
[5]
  residual activity: 82%
[6]
  residual activity: 49%
[7]
  residual activity: 100%
[8]
  residual activity: 63%
[9]
  residual activity: 71%
[10]
  activity at 10 µM: 95% (not active)
[11]
  residual activity: 100%
[12]
  residual activity: 100%
[13]
  residual activity: 103%
[14]
  residual activity: 87%
[15]
  residual activity: 100%
[16]
  residual activity: 100%
[17]
  IC50: 7 nM (active)
[18]
  residual activity: 100%
[19]
  residual activity: 100%
[20]
  residual activity: 100%
[21]
  residual activity: 97%
[22]
  inhibition: 12.2%
[23]
  residual activity: 100%
[24]
  residual activity: 81%
[25]
  inhibition: -3.48%
[26]
  residual activity: 91%
[27]
  residual activity: 100%
[28]
  residual activity: 89%
[29]
  residual activity: 100%
[30]
  residual activity: 100%
[31]
  residual activity: 98%
[32]
  residual activity: 100%
[33]
  residual activity: 100%
[34]
  residual activity: 100%
[35]
  residual activity: 71%
[36]
  residual activity: 89%
[37]
  residual activity: 98%
[38]
  residual activity: 100%
